≈ marks a conversion by molar mass, not a printed value. Read-outs that look alike come from different tables or passages of the source.
What was measured:
[1] = tested on: CD3/IL2 stimulated PBMC cells; assay: IFNγ release from CD3/IL2 stimulated PBMC cells (assay (a)); format: cell-based; details: Homo sapiens, CD3/IL2 stimulation, 48 h, ELISA
Method: (a) IFNγ Release from CD3/IL2 Stimulated PBMC Cells
PBMCs from healthy subjects are separated from whole blood using a density gradient (Lymphoprep, Axis-Shield Healthcare). Cells are added to a 96 well plate, and compound at the desired concentration added 2 hours prior to stimulation with a mixture of monoclonal antibody to CD3 (1 μg/ml, eBioscience) and human recombinant IL2 (10 ng/ml, Peprotech). After 48 hours incubation under normal tissue culture conditions, supernatants are collected and IFNγ release determined by Sandwich ELISA (Duo-set, R&D System). The IC50 is determined from the dose response curve.

Jurkat cells = assay: Cell cytotoxicity assay in Jurkat cells (assay (c)); format: cell-based, human; details: 24 h, propidium iodide, normalised to DMSO control
Method: (c) Cell Cytotoxicity Assay
1×10^5 Jurkat cells (immortalised human T lymphocytes) are added to the appropriate number of wells of a 96 well plate in 100 μL of media (RPMI supplemented with 10% foetal bovine serum). 1 μL of DMSO control (final concentration 1.0% v/v) or test compound (final concentration 20, 5 or 1 μg/mL) is added to the wells and incubated at 37° C., 5% CO2. After 24 hours, the plate is centrifuged at 1200 rpm for 3 minutes and the supernatant discarded. Cells are then resuspended in 150 μL (final concentration 7.5 μg/mL) of propidium iodide (PI) in PBS and incubated at 37° C., 5% CO2 for 15 minutes. After 15 minutes, cells are analysed by flow cytometry (BD accuri) using the FL3 window. The % viability is calculated as the % of cells that are PI negative in the test wells normalised to the DMSO control.

[2] = Solubility in fasted-state simulated colonic fluid (FaSSCoF) at pH 6.5; format: physicochemical; details: 25 °C, pH 6.5, fassgf or other biorelevant, thermodynamic from solid, pH 6.5, 25° C.
Method: The solubilities of compounds of the invention in FaSSCoF at pH 6.5 are determined using a modification of a previously-reported procedure (Vertzoni, M., et al. Pharm. Res. 2010, 27, 2187-2196). In place of the bile salt extract employed in the original procedure (which extract is no longer available), the modified procedure uses a mixture of sodium taurochlorate (0.15 g), glycocholic acid (0.15 g), ursodeoxycholic acid (0.05 g), cholic acid (0.05 g), and glycodeoxycholic acid (0.05 g). These five bile acids are ground together with a mortar and pestle to produce a fine white powder that is incorporated into the FaSSCoF, as outlined below.
Tris(hydroxymethyl)aminomethane (Tris; 0.275 g) and maleic acid (0.44 g) are dissolved in water (35 mL) to give a solution whose pH is adjusted to 6.5 by treatment with 0.5M NaOH (ca. 12 mL). The solution is then made up to 50 mL with water. A portion of this Tris/maleate buffer solution (ca. 25 mL) is added to a 0.5 L round-bottomed flask, before being treated with 0.00565 g of the bile acid mixture described above. Solutions of phosphatidylcholine (0.0111 g) in DCM (0.15 mL) and palmitic acid (0.0013 g) in DCM (0.15 mL) are added, then the organic solvent is evaporated off under reduced pressure at 40° C. until a clear solution, with no perceptible DCM odour, is achieved. The volume of the evaporated solution is adjusted to 50 mL by addition of the remainder of Tris/maleate buffer, then BSA (0.115 g) is added, before being dissolved by gentle agitation.
Test compounds are suspended in the pH 6.5 FaSSCoF medium to give a maximum final concentration of 2-10 mg/mL. The suspensions are equilibrated at 25° C. for 24 h, before being filtered through a glass fibre C filter. The filtrates are then diluted as appropriate for injection and quantification by HPLC with reference to a standard. Different volumes of the standard, diluted and undiluted sample solutions are injected and the solubilities are calculated using the peak areas determined by integration of the peak found at the same retention time as the principal peak in the standard injection.

[3] = Systemic pharmacokinetics and total colon tissue distribution after single oral administration in mice; format: in vivo, male C57BL/6 mice; details: oral 10 mg/kg
Method: Studies were conducted by Sai Life Sciences (Hinjewadi, Pune, India) to investigate the systemic pharmacokinetics and total colon tissue distribution of compounds of the invention following a single oral administration in male C57BL/6 mice.
A group of twenty four male mice were administered with a solution of test compound formulated at a dose of 10 mg/10 mL/kg in aqueous hydroxypropyl-β-cyclodextrin (20% w/v in water). Blood samples (approximately 60 μL) were collected from retro-orbital plexus of each mouse under light isoflurane anaesthesia such that the samples were obtained at 0.5, 1, 2, 4, 6, 8, 12 and 24 hr. The blood samples were collected from a set of three mice at each time point in a labeled micro centrifuge tube containing K2EDTA as anticoagulant. Plasma samples were separated by centrifugation at 4000 rpm for 10 min and stored below −70° C. until bioanalysis. After collection of blood sample, animals were humanely euthanized by carbon dioxide asphyxiation to collect total colon tissues. The colons were flushed with cold PBS (pH7.4) to remove contents. The total colon tissues were homogenized with cold PBS (pH7.4) of twice the weight of colon tissue and stored below −70° C. Total volume was three times the total colon tissue weights. All samples were processed for analysis by protein precipitation using acetonitrile and analyzed with a fit-for-purpose LC-MS/MS method. Pharmacokinetic parameters were calculated using the non-compartmental analysis tool of Phoenix WinNonlin® (Version 6.3).

solubility thermodynamic at 24 h ([2]; Run 1, read-out: pH 6.5 FaSSCoF Solubility Run 1): 6 µg/mL (≈ 10.6 µM) | solubility thermodynamic at 24 h ([2]; Run 2, read-out: pH 6.5 FaSSCoF Solubility Run 2): 6 µg/mL (≈ 10.6 µM) | AUC(0-t) ([3]; male, C57BL/6, mouse, plasma, read-out: AUC0-24 h P (plasma)): 368 ng·h/mL | Cmax ([3]; male, C57BL/6, mouse, plasma, read-out: Cmax P (plasma)): 114 ng/mL | Cmax ([3]; male, C57BL/6, mouse, total colon tissue, total colon, read-out: Cmax C (total colon)): 3230 ng/g | AUC0-24 h C (total colon) ([3]; total colon): 43,739 h · ng/g
Structure (SMILES): CCc1cc(O)c(F)cc1-c1ccc2c(-c3nc4c([nH]3)CCN(C(=O)c3cnc(N5CCCCC5)cn3)C4)n[nH]c2c1 [Reference Compound, reference compound]
IC50 [1]: 81.3 nM | % viability at 1 μg/mL (Jurkat cells): 49%

Source: patent US10851097B2, “4,5,6,7-tetrahydro-1H-imidazo[4,5-c]pyridine and 1,4,5,6,7,8-hexahydroimidazo[4,5-d]azepine derivatives as janus kinase inhibitors” (Topivert Pharma Limited, priority 2015, dated 2020)
